# Experimental data reported in patent publication US20260374756A1, “HETEROCYCLIC COMPOUNDS AS INHIBITORS OF MONOACYLGLYCEROL LIPASE (MAGL)” (Hoffmann-La Roche Inc., priority 2022, published 2026).
# Target: T1, hMAGL (Homo sapiens, UniProt Q99685)
# T1 sequence (Q99685 1-303): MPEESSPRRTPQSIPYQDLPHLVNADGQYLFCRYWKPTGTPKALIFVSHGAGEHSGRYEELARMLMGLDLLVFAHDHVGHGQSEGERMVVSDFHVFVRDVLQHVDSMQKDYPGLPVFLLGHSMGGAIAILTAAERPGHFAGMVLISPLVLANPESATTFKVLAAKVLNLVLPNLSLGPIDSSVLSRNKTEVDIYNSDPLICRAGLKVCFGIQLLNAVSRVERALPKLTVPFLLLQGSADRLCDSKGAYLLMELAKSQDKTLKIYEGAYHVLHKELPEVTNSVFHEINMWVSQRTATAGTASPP
# Test: 2-AG assay: MAGL inhibition, hydrolysis of 2-arachidonoylglycerol to arachidonic acid followed by mass spectrometry
# Format: biochemical
# Protocol: Compounds of formula (I) were profiled for MAGL inhibitory activity by determining the enzymatic activity by following the hydrolysis of the natural substrate 2-arachidonoylglycerol (2-AG) resulting in arachidonic acid, which can be followed by mass spectrometry. This assay is hereinafter abbreviated “2-AG assay”. The 2-AG assay was carried out in 384 well polypropylene assay plates. […] Compound dilutions were added to MAGL protein in assay buffer (50 mM TRIS, 1 mM EDTA, 0.01% (v/v) Tween-20, 2.5% (v/v) DMSO). After shaking, the plate was incubated for 15 min at RT. To start the reaction, 2-arachidonoylglycerol in assay buffer was added. The final concentrations in the assay was […] for MAGL protein and 8 μM 2-arachidonoylglyerol. After shaking and 30 min incubation at RT, the reaction was quenched by the addition of two assay volumes of acetonitrile containing 4 μM of d8-arachidonic acid. The amount of arachidonic acid formed was traced by an online SPE system (Agilent Rapidfire) coupled to a triple quadrupole mass spectrometer. A C18 SPE cartridge (Agilent G9205A) was used in an acetonitrile/water liquid setup. […] The activity of the compounds was calculated based on the ratio of intensities [arachidonic acid/d8-arachidonic acid].
row,Structure (SMILES),IC50 [nM]
1,"O=C(N1CC2(CC(n3cnc(C(F)(F)F)n3)C2)C1)N1CC2(CN(Cc3nnn(CC(F)(F)F)n3)C2)C1 [Example 193, [6-[[2-(2,2,2-trifluoroethyl)tetrazol-5-yl]methyl]-2,6-diazaspiro[3.3]heptan-2-yl]-[6-[3-(trifluoromethyl)-1,2,4-triazol-1-yl]-2-azaspiro[3.3]heptan-2-yl]methanone]",730
2,"O=C(N1CC2(CC(c3cc(C4CC4)n[nH]3)C2)C1)N1CC2(CN(Cc3ccnn3C(F)(F)F)C2)C1 [Example 224, [6-(3-cyclopropyl-1H-pyrazol-5-yl)-2-azaspiro[3.3]heptan-2-yl]-[6-[[2-(trifluoromethyl)pyrazol-3-yl]methyl]-2,6-diazaspiro[3.3]heptan-2-yl]methanone]",20.2
3,Cc1nc(C(F)(F)F)c(CN2CC3(C2)CN(C(=O)N2CC4(CC(n5cnc(C(F)(F)F)n5)C4)C2)C3)s1 [Example 85],37.1
4,"O=C(N1CC2(CC(n3cnc(C4CC4)n3)C2)C1)N1CC2(CN(Cc3sncc3C(F)(F)F)C2)C1 [Example 179, [6-(3-cyclopropyl-1,2,4-triazol-1-yl)-2-azaspiro[3.3]heptan-2-yl]-[6-[[4-(trifluoromethyl)isothiazol-5-yl]methyl]-2,6-diazaspiro[3.3]heptan-2-yl]methanone]",2
5,"Cn1cc(OC2CC3(C2)CN(C(=O)N2CC4(CC(n5cnc(C6(O)CC6)n5)C4)C2)C3)cn1 [Example 88, [6-[3-(1-hydroxycyclopropyl)-1,2,4-triazol-1-yl]-2-azaspiro[3.3]heptan-2-yl]-[6-(1-methylpyrazol-4-yl)oxy-2-azaspiro[3.3]heptan-2-yl]methanone]",1370
6,"O=C(N1CC2(CC(n3cnc(C(F)(F)F)n3)C2)C1)N1CC2(CN(Cc3ccnn3C(F)(F)F)C2)C1 [Example 225, [6-[[2-(trifluoromethyl)pyrazol-3-yl]methyl]-2,6-diazaspiro[3.3]heptan-2-yl]-[6-[3-(trifluoromethyl)-1,2,4-triazol-1-yl]-2-azaspiro[3.3]heptan-2-yl]methanone]",146
7,"O=C(N1CC2(CC(n3cnc(C4CC4)n3)C2)C1)N1CC2(CN(Cc3ncoc3C(F)(F)F)C2)C1 [Example 221, [6-(3-cyclopropyl-1,2,4-triazol-1-yl)-2-azaspiro[3.3]heptan-2-yl]-[6-[[5-(trifluoromethyl)oxazol-4-yl]methyl]-2,6-diazaspiro[3.3]heptan-2-yl]methanone]",32.6
8,"Cn1ccnc1CN1CC2(C1)CN(C(=O)N1CC3(CC(n4cnc(C5CC5)n4)C3)C1)C2 [Example 308, [6-(3-cyclopropyl-1,2,4-triazol-1-yl)-2-azaspiro[3.3]heptan-2-yl]-[6-[(1-methylimidazol-2-yl)methyl]-2,6-diazaspiro[3.3]heptan-2-yl]methanone]",110
9,"O=C(N1CC2(CC(c3cc(C4CC4)n[nH]3)C2)C1)N1CC2(CN(Cc3nc(C4CC4)ns3)C2)C1 [Example 42, [6-(3-cyclopropyl-1H-pyrazol-5-yl)-2-azaspiro[3.3]heptan-2-yl]-[6-[(3-cyclopropyl-1,2,4-thiadiazol-5-yl)methyl]-2,6-diazaspiro[3.3]heptan-2-yl]methanone]",3.85
10,"CC(C)(C)c1c[nH]c(CN2CC3(C2)CN(C(=O)N2CC4(CC(n5cnc(C6CC6)n5)C4)C2)C3)n1 [Example 253, [6-[(4-tert-butyl-1H-imidazol-2-yl)methyl]-2,6-diazaspiro[3.3]heptan-2-yl]-[6-(3-cyclopropyl-1,2,4-triazol-1-yl)-2-azaspiro[3.3]heptan-2-yl]methanone]",38.6
11,"O=C(N1CC2(CC(n3cnc(C4CC4)n3)C2)C1)N1CC2(CN(Cc3cn(CC(F)(F)F)nn3)C2)C1 [Example 108, [6-(3-cyclopropyl-1,2,4-triazol-1-yl)-2-azaspiro[3.3]heptan-2-yl]-[6-[[1-(2,2,2-trifluoroethyl)triazol-4-yl]methyl]-2,6-diazaspiro[3.3]heptan-2-yl]methanone]",735
12,"O=C(N1CC2(CC(n3cnc(C4CC4)n3)C2)C1)N1CC2(CN(Cc3nc(CC4CC4)no3)C2)C1 [Example 265, [6-[[3-(cyclopropylmethyl)-1,2,4-oxadiazol-5-yl]methyl]-2,6-diazaspiro[3.3]heptan-2-yl]-[6-(3-cyclopropyl-1,2,4-triazol-1-yl)-2-azaspiro[3.3]heptan-2-yl]methanone]",9.94
13,"Cn1cnc(C#N)c1CN1CC2(C1)CN(C(=O)N1CC3(CC(n4cnc(C5(O)CC5)n4)C3)C1)C2 [Example 282, 5-[[2-[6-[3-(1-hydroxycyclopropyl)-1,2,4-triazol-1-yl]-2-azaspiro[3.3]heptane-2-carbonyl]-2,6-diazaspiro[3.3]heptan-6-yl]methyl]-1-methyl-imidazole-4-carbonitrile]",3730
14,O=C(N1CC2(CCN(Cc3ncc(C(F)F)s3)CC2)C1)N1CC2(CC(n3cnc(C4CC4)n3)C2)C1 [Example 32],2.86
15,Cn1ncc(CN2CC3(C2)CN(C(=O)N2CC4(CC(n5cnc(C6CC6)n5)C4)C2)C3)c1S(N)(=O)=O [Example 251],368
16,"CC(C)(C)c1csc(CN2CC3(C2)CN(C(=O)N2CC4(CC(n5cnc(C6(O)CC6)n5)C4)C2)C3)n1 [Example 199, [6-[(4-tert-butylthiazol-2-yl)methyl]-2,6-diazaspiro[3.3]heptan-2-yl]-[6-[3-(1-hydroxycyclopropyl)-1,2,4-triazol-1-yl]-2-azaspiro[3.3]heptan-2-yl]methanone]",6.7

# Now from value to compound:
row,IC50 [nM],Structure (SMILES)
1,3.09,"Cc1cc(C(F)(F)F)n(CC2CC3(C2)CN(C(=O)N2CC4(CC(n5cnc(C6CC6)n5)C4)C2)C3)n1 [Example 72, [6-(3-cyclopropyl-1,2,4-triazol-1-yl)-2-azaspiro[3.3]heptan-2-yl]-[6-[[3-methyl-5-(trifluoromethyl)pyrazol-1-yl]methyl]-2-azaspiro[3.3]heptan-2-yl]methanone]"
2,2.62,"O=C(N1CC2(CC(Cc3cc(C(F)(F)F)n[nH]3)C2)C1)N1CC2(CC(n3cnc(C(F)F)n3)C2)C1 [Example 343, [6-[3-(difluoromethyl)-1,2,4-triazol-1-yl]-2-azaspiro[3.3]heptan-2-yl]-[6-[[3-(trifluoromethyl)-1H-pyrazol-5-yl]methyl]-2-azaspiro[3.3]heptan-2-yl]methanone]"
3,14.9,"O=C(N1CC2(CC(Oc3nc(C(F)(F)F)cs3)C2)C1)N1CC2(CC(n3cnc(C4(O)CC4)n3)C2)C1 [Example 13, [6-[3-(1-hydroxycyclopropyl)-1,2,4-triazol-1-yl]-2-azaspiro[3.3]heptan-2-yl]-[6-[4-(trifluoromethyl)thiazol-2-yl]oxy-2-azaspiro[3.3]heptan-2-yl]methanone]"
4,9.98,"O=C(N1CC2(CC(Cn3cnc(C(F)(F)F)n3)C2)C1)N1CC2(CC(n3cnc(C4(O)CC4)n3)C2)C1 [Example 128, [6-[3-(1-hydroxycyclopropyl)-1,2,4-triazol-1-yl]-2-azaspiro[3.3]heptan-2-yl]-[6-[[3-(trifluoromethyl)-1,2,4-triazol-1-yl]methyl]-2-azaspiro[3.3]heptan-2-yl]methanone]"
5,3.73,"O=C(N1CC2(CC(n3cnc(C4CC4)n3)C2)C1)N1CC2(CN(Cc3cc(C(F)(F)F)[nH]n3)C2)C1 [Example 242, [6-(3-cyclopropyl-1,2,4-triazol-1-yl)-2-azaspiro[3.3]heptan-2-yl]-[6-[[5-(trifluoromethyl)-1H-pyrazol-3-yl]methyl]-2,6-diazaspiro[3.3]heptan-2-yl]methanone]"
6,2.51,O=C(N1CC2(CC(Cc3nnc(C4(C(F)(F)F)CC4)o3)C2)C1)N1CC2(CC(n3cnc(C(F)(F)F)n3)C2)C1 [Example 7]
7,5.8,"Cc1cc(C(F)(F)F)nn1CC1CC2(C1)CN(C(=O)N1CC3(CC(n4cnc(C(F)(F)F)n4)C3)C1)C2 [Example 68, [6-[[5-methyl-3-(trifluoromethyl)pyrazol-1-yl]methyl]-2-azaspiro[3.3]heptan-2-yl]-[6-[3-(trifluoromethyl)-1,2,4-triazol-1-yl]-2-azaspiro[3.3]heptan-2-yl]methanone]"
8,0.61,"Cn1nc(CC2CC3(C2)CN(C(=O)N2CC4(CC(n5cnc(C6(O)CC6)n5)C4)C2)C3)cc1C(F)(F)F [Example 2, [6-[3-(1-hydroxycyclopropyl)-1,2,4-triazol-1-yl]-2-azaspiro[3.3]heptan-2-yl]-[6-[[1-methyl-5-(trifluoromethyl)pyrazol-3-yl]methyl]-2-azaspiro[3.3]heptan-2-yl]methanone]"
9,6.75,"O=C(N1CC2(CC(Cn3cc(CC(F)(F)F)cn3)C2)C1)N1CC2(CC(n3cnc(C4(O)CC4)n3)C2)C1 [Example 144, [6-[3-(1-hydroxycyclopropyl)-1,2,4-triazol-1-yl]-2-azaspiro[3.3]heptan-2-yl]-[6-[[4-(2,2,2-trifluoroethyl)pyrazol-1-yl]methyl]-2-azaspiro[3.3]heptan-2-yl]methanone]"
